Where two headings read alike, the source gives them in different places.

These results are taken from patent US5461046A, “1-,2-,3-,4-,5-,6-,7-,8-, and/or 9-substituted dibenzoxazepine compounds, pharmaceutical compositions and methods for treating pain” (G. D. Searle & Co., priority 1993, dated 1995).

Assay [1] relates to stimulant actions of prostaglandins on isolated smooth muscle preparations. Particulars: cited from earlier work.
In assay [2] the test system is micturition reflex in rats. Particulars: urethane-anesthetized rats; cited from earlier work.
In assay [3] the target is T1, prostaglandin E2-induced contractions of segments of guinea pig ileum (Cavia porcellus, UniProt A0A286XHJ6).
T1 construct: The ilea were then quickly removed from the guinea pigs; from tissue; host or cells: ileum segments of male albino guinea pigs
T1 sequence (A0A286XHJ6 1-405): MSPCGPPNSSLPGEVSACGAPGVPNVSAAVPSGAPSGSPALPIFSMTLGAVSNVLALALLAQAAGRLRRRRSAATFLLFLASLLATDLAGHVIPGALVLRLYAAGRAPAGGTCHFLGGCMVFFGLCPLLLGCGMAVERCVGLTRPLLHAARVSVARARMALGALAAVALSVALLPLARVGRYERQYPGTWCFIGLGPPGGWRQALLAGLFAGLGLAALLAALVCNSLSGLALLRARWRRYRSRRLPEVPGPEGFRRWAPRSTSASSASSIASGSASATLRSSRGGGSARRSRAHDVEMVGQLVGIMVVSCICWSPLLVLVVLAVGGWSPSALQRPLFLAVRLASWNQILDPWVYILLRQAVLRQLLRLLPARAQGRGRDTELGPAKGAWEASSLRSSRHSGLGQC
The assay is described as follows: Prostaglandin (PGE) Antagonism Assay in guinea pig ileum. Particulars: initial concentration 3 micromolar; estimated pA2 (slope -1.0 assumed) or Schild plot pA2. How it is done:
In order to determine the effectiveness of several of the compounds of the present invention ("test compounds") as prostaglandin E2 antagonists,a prostaglandin antagonism assay was conducted, as described below, to determine the ability of these compounds to inhibit prostaglandin E2 -induced contractions of segments of guinea pig ileum.
Male albino guinea pigs weighing 200 to 500 grams were sacrificed by cervical dislocation. The ilea were then quickly removed from the guinea pigs and placed in a modified Tyrode solution, a solution which is known to those skilled in the art, containing one-half of the usual amount of magnesium ions.
Segments of ileum about 2 cm long were then cut and mounted in a 10-mL tissue bath containing the modified Tyrode solution. The solution was maintained at 37° C. and aerated with a gaseous mixture of 95% oxygen and 5% carbon dioxide. Data for a control prostaglandin E2 dose response curve plotting concentration of prostaglandin E2 versus the intensity of contractions, detected isotonically, was then obtained by experimentally adjusting the dose of the prostaglandin E2 being injected into the tissue bath, in a manner known by those of skill in the art.
Solutions or suspensions containing an initial concentration (3 micromolar) of a test compound in modified Tyrode solution ("test solutions/suspensions") were then separately substituted for the control bath solution. Each test solution/suspension was then kept in constant contact with the ileum tissue, except for brief periods to drain the bath in preparation for rinsing with fresh test solution/suspension. A second prostaglandin E2 dose response curve was then generated for prostaglandin E2 in the presence of a test compound.
A dose ratio of EC50 doses was then calculated from the results of each test in a manner known by those of skill in the art. A test compound was determined to be "active" if the initial concentration used yielded at least a two-fold shift (dose ratio greater than or equal to 2) in the dose response curve for prostaglandin E2.
The compounds of the present invention which were tested in this assay, and for which results are presented in Table 2, correspond to the particular examples specified in Table 2.

Assay [4] deals with phenylbenzoquinone (PBQ)-induced writhing in mice. The assay is described as follows: Writhing Assay (phenylbenzoquinone-induced writhing, analgesia). Particulars: Mus musculus, 25 min, 25 min before PBQ i.p., number of mice out of ten with analgesia. Type of assay: in vivo, Charles River male albino mice. From the text:
The Writhing Assay is one of the most widely-used experimental procedures for measuring the analgesic activity of different narcotic and nonnarcotic analgesic agents, and involves the continuous, chemically-induced pain of visceral origin to an animal, such as a mouse or rat. [Gyires et al., Arch. int. Pharmacodyn, 267, 131-140 (1984); C. Vander Wende et al., Fed. Proc., 15, 494 (1956); Koster et al., Fed. Proc., 18, 412 (1959); and Witken et al., J. Pharmacol. exp. Ther., 133, 400-408 (1961).] Chemicals which may be used to induce this pain include phenylbenzoquinone (PBQ) and acetic acid. As a result of the chemical irritation to the animal, a characteristic stretching and writhing of the animal (dorsiflexion of the animal's back, extension of its hindlimbs and the strong contraction of its abdominal musculature) will generally occur. […] Drugs which reduce the number of writhes of the animal appear to restore the normal nociceptive threshold of the animal.
Charles River male albino mice, weighing 20 to 30 grams were used in this assay.
Twenty-five minutes after subcutaneous or intragastric administration to ten mice of 30 mg per kilogram of body weight of a compound of the present invention ("test compound"), […] per 10 g of body weight of a 0.025% w/v solution of PBQ was injected intraperitoneally into each mouse. Ten mice which were given saline in place of a test compound of the invention were used as a control group.
Five minutes later, each mouse was individually placed into a glass beaker for observation, and the number of writhes occurring during the following ten-minute period was counted.
A test compound was considered to have produced analgesia in a mouse if, in accordance with the conditions set forth above, and under the test criteria employed for this assay, after the administration of 30 mg per kilogram of body weight of a compound of the present invention to the mouse, the number of writhes elicited by a mouse injected with PBQ was equal to, or less than, one-half the median number of writhes recorded for the saline-treated control group of mice that day, as described by Taber in "Predictive Value of Analgesic Assays in Mice and Rats," Advances in Biochemical Psychopharmacology, 8, 191 (1974).
The results for the particular compounds of the present invention analyzed in this assay, and discussed in the examples identified below which correspond thereto, are presented in Table 2 hereinbelow under the heading "WRITHING ASSAY." The fractions indicate the number of mice out of ten in which a test compound produced analgesia.

Where [5] appears, read: ip, 30 mg per kg i.g., read-out: WRITHING ASSAY Number Out of Ten I.G. (converted).
Where [6] appears, read: sc, 30 mg per kg s.c., read-out: WRITHING ASSAY Number Out of Ten S.C.

Consider `CC(=O)NNC(=O)N1Cc2ccccc2Oc2ccc(Cl)cc21` [SC-19220], for which the “inhibition of stimulant actions of prostaglandins” value in assay [1] is recorded as “inhibit the stimulant actions of prostaglandins on isolated smooth muscle preparations”. Further, in assay [2], the bladder capacity entry was “increased” and the “voiding efficiency of micturition” value was “reduced”.

`O=C(Cc1ccccc1)NNC(=O)N1Cc2ccccc2Oc2ccc(Cl)cc21` [SC-18637]: the “inhibition of stimulant actions of prostaglandins” value in assay [1] is listed as “inhibit the stimulant actions of prostaglandins on isolated smooth muscle preparations”.

As to `CCS(=O)(=O)CCC(=O)NNC(=O)N1Cc2ccccc2Oc2ccc(O)cc21` [Example 19, 8-hydroxydibenz[b,f][1,4]oxazepine-10(11H)-carboxylic acid, 2-[3-(ethylsulfonyl)-1-oxopropyl]hydrazide], in assay [3], the Kb is 2.57 µM. The responders at 30 mg/kg is 40% in assay [4] (setting [5]) and 30% in assay [4] (setting [6]).

`CCS(=O)(=O)CCC(=O)NNC(=O)N1Cc2ccccc2Oc2cc(C(=O)OC(C)(C)C)ccc21` [Example 5, Dibenz[b,f][1,4]oxazepine-7,10(11H)-dicarboxylic acid, 7-(1,1-dimethylethyl) ester, 10-[2-[3-(ethylsulfonyl)-1-oxopropyl]hydrazide]]: in assay [3], the Kb was 1.17 µM. The results for the responders at 30 mg/kg in assay [4] (setting [5]) and in assay [4] (setting [6]) were 20% and 30%, respectively.

Regarding `CCS(=O)(=O)CCC(=O)NNC(=O)N1Cc2ccccc2Oc2cc(C(=O)O)ccc21` [Example 6, Dibenz[b,f][1,4]oxazepine-7,10(11H)-dicarboxylic acid, 10-[2-[3-(ethylsulfonyl)-1-oxopropyl]hydrazide]], in assay [3], the Kb was 2.63 µM. Moreover, the responders at 30 mg/kg in assay [4] (setting [5]) is 40%; in assay [4] (setting [6]) it was 20%.

Take `CCS(=O)(=O)CCC(=O)NNC(=O)N1Cc2ccccc2Oc2ccc(C(=O)OC(C)(C)C)cc21` [Example 3, Dibenz[b,f][1,4]oxazepine-8,10(11H)-dicarboxylic acid, 8-(1,1-dimethylethyl) ester, 10-[2-[3-(ethylsulfonyl)-1-oxopropyl]hydrazide]]: in assay [3], the antagonist dissociation constant (Kb) is 1.78 µM. Besides, the responders at 30 mg/kg is 40% in assay [4] (setting [5]) and 30% in assay [4] (setting [6]).

Consider `CCS(=O)(=O)CCC(=O)NNC(=O)N1Cc2ccccc2Oc2ccccc21` [Example 21, Dibenz[b,f][1,4]oxazepine-10(11H)-carboxylic acid, 2-[3-(ethylsulfonyl)-1-oxopropyl]hydrazide], for which the Kb in assay [3] is 1.05 µM. Moreover, the responders at 30 mg/kg was 50% in assay [4] (setting [5]) and 10% in assay [4] (setting [6]).

Consider `CCS(=O)(=O)CCC(=O)NNC(=O)N1Cc2ccccc2Oc2ccc(C)cc21` [Example 17, 8-methyldibenz[b,f][1,4]oxazepine-10(11H)-carboxylic acid, 2-[3-(ethylsulfonyl)-1-oxopropyl]hydrazide], for which the Kb in assay [3] is 2.09 µM. Moreover, the responders at 30 mg/kg in assay [4] (setting [5]) is 22.2%; in assay [4] (setting [6]) it was 20%.

As for `CCS(=O)(=O)CCC(=O)NNC(=O)N1Cc2ccccc2Oc2ccc(C(=O)OC)cc21` [Example 1, Dibenz [b,f][1,4]oxazepine-8,10(11H)dicarboxylic acid, 8-methyl ester, 10-[2-[3-(ethylsulfonyl)-1-oxopropyl]hydrazide]], the Kb in assay [3] was 2.88 µM. In addition, the responders at 30 mg/kg in assay [4] (setting [5]) was 30%; in assay [4] (setting [6]), 50%.
